Assay results from US20240285784A1, “PEPTIDIC CONJUGATES OF SN38 USEFUL IN THE TREATMENT OF CANCER” (FUNDACIÓ INSTITUT DE RECERCA BIOMÈDICA (IRB BARCELONA), priority 2020, published 2024).
Where two headings read alike, the source gives them in different places. *1 amine or outer side, *2 acyl side, *3 side chain or, on linkers, in order; H or OH if unused. Where a SMILES comes first, the peptide text is derived from it. [ ]: non-standard residue; d: D form. The star is where a group is joined. ξ: configuration not given here. X3 = CCc1c2c(nc3ccc(O)cc13)-c1cc3c(c(=O)n1C2)COC(=O)[C@@]3(CC)OC(=O)CCCCn1cc(CCCC(=O)NCCCOCCOCCOCCSCN*)nn1; X2 = CCc1c2c(nc3ccc(O)cc13)-c1cc3c(c(=O)n1C2)COC(=O)[C@@]3(CC)OC(=O)CCC(=O)*; X4 = CC(O)CC(N[*:1])C(=O)[*:2]; Suc = O=C(CCC(=O)[*:2])[*:1]; ξE = NC(CCC(=O)O)C(=O)O; ξN = NC(=O)CC(N)C(=O)O; ξK = NCCCCC(N)C(=O)O; ξT = CC(O)C(N)C(=O)O; ξDap = NCC(N)C(=O)O; ξP = O=C(O)C1CCCN1; ξA = CC(N)C(=O)O

Experiments:
[1] = tested on: diffuse intrinsic pontine glioma HSJD-DIPG-007; assay: cells; settings: HSJD-DIPG-007, MTS, 72 h incubation
Excerpt: Cancer cell lines were obtained from the repository maintained at Hospital Sant Joan de Deu (Barcelona, Spain). Cancer cell lines used in these experiment included cancer types of adult glioma (U373 and U87 cell lines), pediatric gliomas including diffuse intrinsic pontine glioma (HSJD-DIPG-007, HSJD-DIPG-011), and pediatric high-grade glioma (HSJD-GBM-001), retinoblastoma (HSJD-RBT-5, HSJD-RBT-7 and HSJD-RBT-14), Ewing sarcoma (A673), rhabdomyosarcoma (Rd and RH4) and neuroblastoma (LAN-1 and SK-N-JD cell lines and HSJD-NB-004, HSJD-NB-005 and HSJD-NB-016 patient-derived cell models). […] To add the drugs to the cells in culture, SN38-linker A-MiniAp4 (Ia) and irinotecan were prepared in culture medium from stock solutions at concentration 1 mg/mL in water. SN38 was prepared in culture medium from a stock solution at concentration 1 mg/mL in DMSO. […] Activity curves were built for adult glioma cell lines U87 (FIG. 1) and U373 (FIG. 2), pediatric gliomas including DIPG models HSJD-DIPG-007 (FIG. 3) and HSJD-DIPG-011 (FIG. 4), and pediatric high-grade glioma model HSJD-GBM-001 (FIG. 5), retinoblastoma models HSJD-RBT-5 (FIG. 6), HSJD-RBT-7 (FIG. 7) and HSJD-RBT-14 (FIG. 8), Ewing sarcoma cell line A673 (FIG. 9), rhabdomyosarcoma cell lines Rd (FIG. 10) and RH4 (FIG. 11), neuroblastoma cell lines LAN-1 (FIG. 12) and SK-N-JD (FIG. 13) and neuroblastoma patient-derived cell models HSJD-NB-004 (FIG. 14), HSJD-NB-005 (FIG. 15) and HSJD-NB-016 (FIG. 16). The established IC50 values are in Table 3.
Cancer cell lines used in these experiments were pediatric gliomas including diffuse intrinsic pontine glioma HSJD-DIPG-007, and pediatric high-grade glioma HSJD-GBM-001. […] To add the drugs to the cells in culture, SN38-Linker A-MiniAp4 (Ia) and SN38-Linker B-THRre were prepared in culture medium from stock solutions at concentration 1 mg/mL in water. SN38 was prepared in culture medium from a stock solution at concentration 1 mg/mL in DMSO. […] Activity curves were built for cells HSJD-DIPG-007 (FIG. 20) and HSJD-GBM-001 (FIG. 21).
Cancer cell lines used in these experiments were pediatric gliomas including diffuse intrinsic pontine glioma HSJD-DIPG-007, and pediatric high-grade glioma HSJD-GBM-001. […] All compounds were prepared in culture medium from stock solutions at concentration 1 mg/mL in water. […] Activity curves were built for cells HSJD-DIPG-007 (FIG. 22) and HSJD-GBM-001 (FIG. 23).
Cancer cell line used in these experiment was HSJD-DIPG-007.

[2] = tested on: pediatric high-grade glioma HSJD-GBM-001; assay: cells; type: cell-based; settings: MTS, 72 h incubation, Example 11, Table 4, read-out: IC50 values of compounds
Excerpt: Cancer cell lines were obtained from the repository maintained at Hospital Sant Joan de Deu (Barcelona, Spain). Cancer cell lines used in these experiment included cancer types of adult glioma (U373 and U87 cell lines), pediatric gliomas including diffuse intrinsic pontine glioma (HSJD-DIPG-007, HSJD-DIPG-011), and pediatric high-grade glioma (HSJD-GBM-001), retinoblastoma (HSJD-RBT-5, HSJD-RBT-7 and HSJD-RBT-14), Ewing sarcoma (A673), rhabdomyosarcoma (Rd and RH4) and neuroblastoma (LAN-1 and SK-N-JD cell lines and HSJD-NB-004, HSJD-NB-005 and HSJD-NB-016 patient-derived cell models). Briefly, between 3000 and 30,000 cancer cells were cultured in 96 well plates and 24 h later the cells were exposed to compound SN38-linker A-MiniAp4 (Ia) (concentration range 1-0.00000001 μM), SN38 (concentration range 1-0.00000001 μM), or irinotecan (concentration range 100-0,000001 μM). To add the drugs to the cells in culture, SN38-linker A-MiniAp4 (Ia) and irinotecan were prepared in culture medium from stock solutions at concentration 1 mg/mL in water. SN38 was prepared in culture medium from a stock solution at concentration 1 mg/mL in DMSO. The tetrazolium compound [3-(4,5-dimethylthiazol-2-yl)-5-(3-carboxymethoxyphenyl)-2-(4-sulfophenyl)-2H-tetrazolium] (MTS assay; Promega, Fitchburg, WI) was used to determine cell viability after 72 h incubation with the drugs. The concentrations of drug required to cause a reduction of 50% in cell proliferation (IC50 and 95% confidence intervals) were calculated with Graphpad Prism 8 software (La Jolla, CA). Activity curves were built for adult glioma cell lines U87 (FIG. 1) and U373 (FIG. 2), pediatric gliomas including DIPG models HSJD-DIPG-007 (FIG. 3) and HSJD-DIPG-011 (FIG. 4), and pediatric high-grade glioma model HSJD-GBM-001 (FIG. 5), retinoblastoma models HSJD-RBT-5 (FIG. 6), HSJD-RBT-7 (FIG. 7) and HSJD-RBT-14 (FIG. 8), Ewing sarcoma cell line A673 (FIG. 9), rhabdomyosarcoma cell lines Rd (FIG. 10) and RH4 (FIG. 11), neuroblastoma cell lines LAN-1 (FIG. 12) and SK-N-JD (FIG. 13) and neuroblastoma patient-derived cell models HSJD-NB-004 (FIG. 14), HSJD-NB-005 (FIG. 15) and HSJD-NB-016 (FIG. 16). The established IC50 values are in Table 3.
The present inventors compared the activity of the new compound SN38 conjugated with MiniAp4 (SN38-linkerA-MiniAp4, example 7 also named G2B-001) and with SN38-linker B-THRre (comparative example 2). Original compound SN38 was used as reference. Cancer cell lines used in these experiments were pediatric gliomas including diffuse intrinsic pontine glioma HSJD-DIPG-007, and pediatric high-grade glioma HSJD-GBM-001. Briefly, 3000 cancer cells were cultured in 96 well plates and 24 h later the cells were exposed to compound compound (Ia) (concentration range 1-0.00000001 μM), SN38-Linker B-THRre (concentration range 1-0.00000001 μM), and SN38 (concentration range 1-0.00000001 μM). To add the drugs to the cells in culture, SN38-Linker A-MiniAp4 (Ia) and SN38-Linker B-THRre were prepared in culture medium from stock solutions at concentration 1 mg/mL in water. SN38 was prepared in culture medium from a stock solution at concentration 1 mg/mL in DMSO. The MTS assay was used to determine cell viability after 72 h incubation with the drugs. The concentrations of drug required to cause a reduction of 50% in cell proliferation (IC50 and 95% confidence intervals) were calculated with Graphpad Prism 8 software (La Jolla, CA). Activity curves were built for cells HSJD-DIPG-007 (FIG. 20) and HSJD-GBM-001 (FIG. 21). The established IC50 values are in Table 4.
Cancer cell lines used in these experiments were pediatric gliomas including diffuse intrinsic pontine glioma HSJD-DIPG-007, and pediatric high-grade glioma HSJD-GBM-001. Briefly, 3000 cancer cells were cultured in 96 well plates and 24 h later the cells were exposed to compounds (Ia), comparative example 1 and comparative example 2 (concentration range 1-0.001 μM for each of them). […]

[3] = Evaluation of solubility in water; type: physicochemical; settings: at 1 mg/mL
Experimental: 25 mg of SN38-linker A-MiniAp4 were dissolved in H2O, showing a completely transparent solution. This means that SN38-linker A-MiniAp4 has a solubility in water higher than 5 mg/mL, more than 400-fold the solubility in water described for SN38 (Mol. Pharmaceutics, 2016, 13, 379-390).

[4] = Stability in human plasma at 37° C. in vitro; type: in vitro ADME
Experimental: To assess the stability of the SN38-linker A-MiniAp4 (Ia) (example 7) in human, mouse, dog and rat plasma at 37° C., the compound was prepared at 200 μM in plasma samples in triplicates at each timepoint (0 h, 1 h, 4 h, 8 h and 24 h) for each species. Once the incubation was finalised, plasma proteins were immediately precipitated by adding chilly methanol (ratio 4:1, methanol:plasma) and tubes were shacked for few seconds (vortex). Samples were centrifuged at 3,000 rpm for 30 minutes at 4° C., supernatants were collected, transferred to the injection plate and injected to LC-MS system.
Compound recovery was determined by comparing the analyte response in a biological sample that is spiked with the analyte and processed, with the response in a methanol sample that is spiked with the analyte and processed.
Plasma stability assay was performed using blank plasma from untreated volunteers/animals. K2-EDTA was used as anticoagulant. Human blank plasma used was obtained from Hospital Sant Pau, mouse blank plasma used was obtained from Janvier, dog blank plasma used was obtained from Isoquimen and rat blank plasma used were obtained from Draconis Pharma.
To assess the stability of the G2B-001 lineal (Ib) (example 16) in human plasma at 37° C., the compound was prepared at 200 µM in plasma samples in triplicates at each timepoint (0 h, 0.5 h, 1 h, 2 h, 4 h, 8 h and 24 h). Once the incubation was finalised, plasma proteins were immediately precipitated by adding chilly methanol (ratio 4:1, methanol:plasma) and tubes were shacked for few seconds (vortex). Samples were centrifuged at 3,000 rpm for 30 minutes at 4° C., supernatants were collected, transferred to the injection plate and injected to LC-MS system. Compound recovery was determined by comparing the analyte response in a biological sample that is spiked with the analyte and processed, with the response in a methanol sample that is spiked with the analyte and processed.
Plasma stability assay was performed using blank plasma from untreated volunteers. K2-EDTA was used as anticoagulant. Human blank plasma used was obtained from Hospital Sant Pau.

| SMILES | IC50 ([1]; read-out: IC50 values of compounds, Example 11, Table 4) [µM] | IC50 [2] [µM] | IC50 ([1]; read-out: IC50 values, Example 25, Table 8) [µM] | solubility in water [3] | half-life at 200 μM [4] [h] | recovery at 24 h, 200 μM ([4]; 24 h, read-out: % Recovery after 24 h in human plasma) [%] |
| --- | --- | --- | --- | --- | --- | --- |
| CCc1c2c(nc3ccc(O)cc13)-c1cc3c(c(=O)n1C2)COC(=O)[C@@]3(CC)OC(=O)CCC(=O)N1CCC[C@@H]1C(=O)N[C@H](Cc1c[nH]c2ccccc12)C(=O)N[C@@H](C(=O)N1CCC[C@@H]1C(=O)N[C@H](CO)C(=O)N[C@H](Cc1c[nH]c2ccccc12)C(=O)N[C@H](CCSC)C(=O)N1CCC[C@@H]1C(=O)N1CCC[C@@H]1C(=O)N[C@H](CCCNC(=N)N)C(=O)N[C@H](Cc1c[nH]cn1)C(=O)N[C@@H](C(N)=O)[C@H](C)O)C(C)C [Comparative Example 2, reference compound] (X2-[dP][dW][dV][dP][dS][dW][dM][dP][dP][dR][dH][dT]-NH2; N-terminus and C-terminus assumed) | 0.104 | 0.0606 |  |  |  |  |
| CCc1c2c(nc3ccc(O)cc13)-c1cc3c(c(=O)n1C2)COC(=O)[C@@]3(CC)OC(=O)CCCCn1cc(CCCC(=O)NCCCOCCOCCOCCSCNC(=O)CCC(=O)NC(CN)C(=O)NC(CCCCN)C(=O)NC(C)C(=O)N2CCCC2C(=O)NC(CCC(=O)O)C(=O)NC(C(=O)NC(C)C(=O)NC(CC(C)O)C(=O)NC(CC(N)=O)C(N)=O)C(C)O)nn1 (stereo partly drawn) [G2B-001 lineal (Ib)] ({X3-Suc}-[ξDap][ξK][ξA][ξP][ξE][ξT][ξA][X4][ξN]-NH2) |  |  | 0.0368 | good solubility | > 24 | 69.9 |
